Assay results from PubChem BioAssay (NCI).
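Method: 48-hour compound exposure of cells in 96-well plates, five concentrations, linear interpolation of endpoints. Here, GI50 denotes the concentration required for 50% inhibition of growth. Definition used: TGI = concentration required for complete inhibition of growth.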

How the values were obtained:
Assay in all cases: NCI tumour cell line growth inhibition, 48 h
COLO 205 colon = system: COLO 205 colon
NCI-H226 lung = system: NCI-H226 lung
SR leukemia = system: SR leukemia
MCF7 breast = system: MCF7 breast
OVCAR-3 ovarian = system: OVCAR-3 ovarian
OVCAR-4 ovarian = system: OVCAR-4 ovarian
SK-MEL-28 melanoma = system: SK-MEL-28 melanoma
MDA-MB-468 breast = system: MDA-MB-468 breast
U251 CNS = system: U251 CNS
SF-539 CNS = system: SF-539 CNS
HOP-92 NSCLC = system: HOP-92 NSCLC
HCC-2998 colon = system: HCC-2998 colon
TK-10 renal = system: TK-10 renal
RXF 393 renal = system: RXF 393 renal
CAKI-1 renal = system: CAKI-1 renal
BT-549 breast = system: BT-549 breast
HS 578T breast = system: HS 578T breast
DU-145 prostate = system: DU-145 prostate
PC-3 prostate = system: PC-3 prostate
A498 renal = system: A498 renal
SK-OV-3 ovarian = system: SK-OV-3 ovarian
M14 melanoma = system: M14 melanoma
NCI/ADR-RES ovarian = system: NCI/ADR-RES ovarian
T-47D breast = system: T-47D breast
NCI-H522 lung = system: NCI-H522 lung
MDA-MB-435 = system: MDA-MB-435
UO-31 renal = system: UO-31 renal
HOP-62 NSCLC = system: HOP-62 NSCLC
HCT-15 colon = system: HCT-15 colon
MALME-3M melanoma = system: MALME-3M melanoma
UACC-257 melanoma = system: UACC-257 melanoma
MOLT-4 leukemia = system: MOLT-4 leukemia
NCI-H460 lung = system: NCI-H460 lung
SK-MEL-2 melanoma = system: SK-MEL-2 melanoma
SNB-75 CNS = system: SNB-75 CNS
CCRF-CEM leukemia = system: CCRF-CEM leukemia
HCT-116 colon = system: HCT-116 colon
SNB-19 CNS = system: SNB-19 CNS
ACHN renal = system: ACHN renal
SN12C renal = system: SN12C renal
A549 NSCLC = system: A549 NSCLC
UACC-62 melanoma = system: UACC-62 melanoma
KM12 colon = system: KM12 colon
OVCAR-8 ovarian = system: OVCAR-8 ovarian
RPMI-8226 leukemia = system: RPMI-8226 leukemia
LOX IMVI melanoma = system: LOX IMVI melanoma
EKVX NSCLC = system: EKVX NSCLC
786-0 renal = system: 786-0 renal
SW-620 colon = system: SW-620 colon
K-562 leukemia = system: K-562 leukemia
MDA-MB-231 breast = system: MDA-MB-231 breast
NCI-H23 lung = system: NCI-H23 lung
SF-295 CNS = system: SF-295 CNS
HT29 colon = system: HT29 colon
SK-MEL-5 melanoma = system: SK-MEL-5 melanoma
OVCAR-5 ovarian = system: OVCAR-5 ovarian
SF-268 CNS = system: SF-268 CNS
HL-60(TB) leukemia = system: HL-60(TB) leukemia
IGROV1 ovarian = system: IGROV1 ovarian

COc1ccc(Cc2nn(CC(=O)N/N=C/c3ccc(F)cc3)c(=O)c3c(C)noc23)cc1
GI50 (COLO 205 colon): 8.3 µM | TGI (COLO 205 colon): 35.2 µM | GI50 (NCI-H226 lung): 1800 nM | TGI (NCI-H226 lung): 4.61 µM | GI50 (SR leukemia): 16.1 µM | TGI (SR leukemia): > 100 µM | GI50 (MCF7 breast): 8.44 µM | TGI (MCF7 breast): 35.1 µM | GI50 (OVCAR-3 ovarian): 3.44 µM | TGI (OVCAR-3 ovarian): 11.2 µM | GI50 (OVCAR-4 ovarian): 1800 nM | TGI (OVCAR-4 ovarian): 3.47 µM | GI50 (SK-MEL-28 melanoma): 6.9 µM | TGI (SK-MEL-28 melanoma): 21.8 µM | GI50 (MDA-MB-468 breast): 3.87 µM | TGI (MDA-MB-468 breast): 17.7 µM | GI50 (U251 CNS): 2650 nM | TGI (U251 CNS): 8.07 µM | GI50 (SF-539 CNS): 10.5 µM | TGI (SF-539 CNS): 22.8 µM | GI50 (HOP-92 NSCLC): 2340 nM | TGI (HOP-92 NSCLC): 6.97 µM | GI50 (HCC-2998 colon): 5.46 µM | TGI (HCC-2998 colon): 19.7 µM | GI50 (TK-10 renal): 2400 nM | TGI (TK-10 renal): 6.39 µM | GI50 (RXF 393 renal): 2420 nM | TGI (RXF 393 renal): 6.47 µM | GI50 (CAKI-1 renal): 2020 nM | TGI (CAKI-1 renal): 4.62 µM | GI50 (BT-549 breast): 12.2 µM | TGI (BT-549 breast): 35.7 µM | GI50 (HS 578T breast): 3.19 µM | TGI (HS 578T breast): 15.1 µM | GI50 (DU-145 prostate): 5.87 µM | TGI (DU-145 prostate): 18.8 µM | GI50 (PC-3 prostate): 5.43 µM | TGI (PC-3 prostate): 23.4 µM | GI50 (A498 renal): 1830 nM | TGI (A498 renal): 3.73 µM | GI50 (SK-OV-3 ovarian): 1990 nM | TGI (SK-OV-3 ovarian): 3.97 µM | GI50 (M14 melanoma): 8.67 µM | TGI (M14 melanoma): 38 µM | GI50 (NCI/ADR-RES ovarian): 4.03 µM | TGI (NCI/ADR-RES ovarian): 17.2 µM | GI50 (T-47D breast): 2240 nM | TGI (T-47D breast): 5.88 µM | GI50 (NCI-H522 lung): 10.4 µM | TGI (NCI-H522 lung): 31.2 µM | GI50 (MDA-MB-435): 9.52 µM | TGI (MDA-MB-435): 31.3 µM | GI50 (UO-31 renal): 1790 nM | TGI (UO-31 renal): 3.84 µM | GI50 (HOP-62 NSCLC): 1930 nM | TGI (HOP-62 NSCLC): 4.04 µM | GI50 (HCT-15 colon): 9.27 µM | TGI (HCT-15 colon): 89.3 µM | GI50 (MALME-3M melanoma): 3.63 µM | TGI (MALME-3M melanoma): 15 µM | GI50 (UACC-257 melanoma): 6.33 µM | TGI (UACC-257 melanoma): 29.1 µM | GI50 (MOLT-4 leukemia): 22.6 µM | TGI (MOLT-4 leukemia): > 100 µM | GI50 (NCI-H460 lung): 3.27 µM | TGI (NCI-H460 lung): 11.3 µM | GI50 (SK-MEL-2 melanoma): 12.1 µM | TGI (SK-MEL-2 melanoma): 29.5 µM | GI50 (SNB-75 CNS): 2000 nM | TGI (SNB-75 CNS): 4.49 µM | GI50 (CCRF-CEM leukemia): 9.65 µM | TGI (CCRF-CEM leukemia): > 100 µM | GI50 (HCT-116 colon): 2470 nM | TGI (HCT-116 colon): 6.77 µM | GI50 (SNB-19 CNS): 4.48 µM | TGI (SNB-19 CNS): 20.4 µM | GI50 (ACHN renal): 1950 nM | TGI (ACHN renal): 3.83 µM | GI50 (SN12C renal): 2360 nM | TGI (SN12C renal): 6.08 µM | GI50 (A549 NSCLC): 3.02 µM | TGI (A549 NSCLC): 10.1 µM | GI50 (UACC-62 melanoma): 8.63 µM | TGI (UACC-62 melanoma): 25.1 µM | GI50 (KM12 colon): 26.5 µM | TGI (KM12 colon): > 100 µM | GI50 (OVCAR-8 ovarian): 6.96 µM | TGI (OVCAR-8 ovarian): 60.6 µM | GI50 (RPMI-8226 leukemia): 9.01 µM | TGI (RPMI-8226 leukemia): > 100 µM | GI50 (LOX IMVI melanoma): 4.65 µM | TGI (LOX IMVI melanoma): 22 µM | GI50 (EKVX NSCLC): 4.39 µM | TGI (EKVX NSCLC): 21.4 µM | GI50 (786-0 renal): 2120 nM | TGI (786-0 renal): 4.63 µM | GI50 (SW-620 colon): 5.59 µM | TGI (SW-620 colon): 22.9 µM | GI50 (K-562 leukemia): 31.4 µM | TGI (K-562 leukemia): > 100 µM | GI50 (MDA-MB-231 breast): 5.66 µM | TGI (MDA-MB-231 breast): 19.5 µM | GI50 (NCI-H23 lung): 6.72 µM | TGI (NCI-H23 lung): 20.9 µM | GI50 (SF-295 CNS): 2070 nM | TGI (SF-295 CNS): 4.86 µM | GI50 (HT29 colon): 10.9 µM | TGI (HT29 colon): 25.5 µM | GI50 (SK-MEL-5 melanoma): 12.8 µM | TGI (SK-MEL-5 melanoma): 33.4 µM | GI50 (OVCAR-5 ovarian): 7.18 µM | TGI (OVCAR-5 ovarian): 25.1 µM | GI50 (SF-268 CNS): 5.81 µM | TGI (SF-268 CNS): 36.9 µM | GI50 (HL-60(TB) leukemia): 68.8 µM | TGI (HL-60(TB) leukemia): > 100 µM | GI50 (IGROV1 ovarian): 7.58 µM | TGI (IGROV1 ovarian): 22.8 µM
